From PMC12565843, “Phenolic Compounds from Hypericum cerastoides (Spach) N. Robson: Dereplication via UHPLC-HRMS/MS, Isolation, Identification, and Preliminary Biological Evaluation Focusing on Radical-Scavenging, Anti-α-Glucosidase, and Pro-Lipase Activities” (Metabolites, 2025)
Several values for one entry are separate records, joined by “and”; a condition that tells them apart may be missing. Equal entries are not always repeated.

Columns and labels:
[1] = target: T1, lipase from porcine pancreas, Type II (Sus scrofa, UniProt P00591); assay: Assay for modulation of lipase activity (LC-MS, p-nitrophenyl laurate substrate); type: biochemical; conditions: for Effect on lipase activity (in words): tested at 200-12.5 µM; for Fold increase of lipase activity compared to the control: 200 µM
T1 construct: lipase from porcine pancreas, Type II; purchased Sigma-Aldrich L3126; host or cells: porcine pancreas (tissue-derived)
T1 sequence (P00591 1-450): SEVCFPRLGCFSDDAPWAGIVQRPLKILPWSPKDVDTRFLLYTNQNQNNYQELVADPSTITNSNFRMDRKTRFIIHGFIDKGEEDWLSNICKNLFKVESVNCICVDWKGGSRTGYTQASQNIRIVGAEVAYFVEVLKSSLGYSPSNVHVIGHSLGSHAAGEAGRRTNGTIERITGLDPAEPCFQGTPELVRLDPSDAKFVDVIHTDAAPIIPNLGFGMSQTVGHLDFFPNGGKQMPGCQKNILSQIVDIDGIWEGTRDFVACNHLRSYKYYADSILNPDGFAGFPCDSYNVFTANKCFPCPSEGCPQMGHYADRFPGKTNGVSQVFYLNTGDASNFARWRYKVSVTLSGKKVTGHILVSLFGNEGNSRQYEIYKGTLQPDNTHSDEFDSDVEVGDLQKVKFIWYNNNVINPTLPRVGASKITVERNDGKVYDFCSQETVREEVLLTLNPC
Description: This assay was adapted from previous reports for the determination of anti-lipase and pro-lipase activity by LC-MS [14]. Briefly, lipase from porcine pancreas, Type II (Sigma-Aldrich, St. Louis, MA, USA, product L3126), was dissolved in ultra-pure water at a 5 mg/mL concentration. The supernatant was then used after centrifugation at 15,000 rpm for 10 min. The assay buffer was 100 mM Tris buffer (pH 8.2), and p-nitrophenyl laurate was used as the substrate. The substrate stock was 2 mg p-nitrophenyl laurate dissolved in 1 mL isopropanol and 4 mL 5 mM sodium acetate (pH 5.0) containing 1% Triton X-100 (Fisher Scientific, Bridgewater, NJ, USA). The mixture was heated to facilitate dissolution, thoroughly mixed, and then cooled to room temperature. The assay mixture (1 mL) contained 20 µL of a sample in DMSO (or DMSO as a control), 860 µL of Tris buffer (pH 8.2), and 30 µL of enzyme solution. The mixture was combined, shaken, and incubated at 37 °C for 15 min. Then, 90 µL of substrate solution was added and shaken again. The reaction was processed at 37 °C for 2 h and stopped by adding 800 µL CH3CN to 200 µL of the assay mixture. The supernatant was then used for LC-MS analysis after centrifugation at 15,000 rpm for 10 min. The amount of p-nitrophenol released from p-nitrophenyl laurate was quantified using LC-MS. Lipase inhibitory activity (%) was calculated according to the formula: % Lipase inhibitory activity=Aк−Asample/Aк×100, where Aк is the area of the p-nitrophenol peak in the control, and Asample is the area of the p-nitrophenol peak in the sample.
Pro-lipase activity (%) was calculated according to the formula: % Prolipase activity=Asample−Ak/Aк×100, where Aк is the area of the p-nitrophenol peak in the control, and Asample is the area of the p-nitrophenol peak in the sample.

α-glucosidase = assay: Anti-α-glucosidase activity assay (LC-MS, p-nitrophenyl-α-D-glucopyranoside substrate); type: biochemical; conditions: five concentrations 1000-62.5 µM, NA = the compound is not active; for IC50: read-out: α-Glucosidase Inhibitory Activity (IC50 ± SD)
Description: The α-Glucosidase inhibitory activity was determined by LC-MS using p-nitrophenyl-α-D-glucopyranoside as the substrate, as described by Kokanova-Nedialkova et al.. The assay mixture (160 µL) was prepared accordingly to Kang et al. with some modifications. An aliquot of 20 µL of a sample in phosphate buffer (pH 6.8) containing 10% DMSO (or phosphate buffer containing 10% DMSO as a control), 100 µL phosphate buffer (pH 6.8), and 20 µL enzyme solution (0.2 U/mL α-glucosidase in phosphate buffer) were mixed and incubated at 37 °C for 15 min. Then, 20 µL of substrate solution (2.5 mM p-nitrophenyl-α-D-glucopyranoside, prepared in the same buffer) was added. The reaction was processed at 37 °C for 15 min and stopped by adding 840 µL acetonitrile (AcCN). The supernatant was then used for LC-MS analysis after centrifugation at 12,000 rpm for 10 min. The amount of p-nitrophenol released from p-nitrophenyl-α-D-glucopyranoside was quantified using liquid chromatography-[…] (LC-MS). The inhibitory rates (%) were calculated according to the formula: % α−Glucosidase inhibitory activity=Aк−Asample/Aк×100, where Aк is the area of the p-nitrophenol peak in the control, and Asample is the area of the p-nitrophenol peak in the sample.

[2] = DPPH radical-scavenging activity assay; conditions: compounds and controls at 100 µM in EtOH, 30 min, 517 nm; mean ± SD
Description: The scavenging activity of phenolic compounds against DPPH radicals was assessed using Kokanova-Nedialkova and Nedialkov methods, with some modifications. Briefly, 300 µL of each compound in EtOH (100 µM) was mixed with 300 µL of DPPH ethanol solution (100 µM). The reaction mixture was thoroughly vortexed and left in the dark at room temperature for 30 min. The absorbance of the mixture was measured at 517 nm. The following equation calculates the ability to scavenge DPPH radicals: %DPPH radical scavenging activity=Abscontrol−Abssample/Abscontrol×100, where Abscontrol is the absorbance of the DPPH radical in EtOH, and Abssample is the absorbance of the DPPH radical solution mixed with a sample.
Positive controls were vitamin C (100 µM) and Trolox (100 µM).

[3] = ABTS radical-scavenging activity assay; conditions: compounds and controls at 100 µM in EtOH, 7 min, 734 nm, mean ± SD
Description: For ABTS assay, the procedure followed the method of Kokanova-Nedialkova and Nedialkov with some modifications. The stock solutions included 7 mM ABTS and 2.4 mM potassium persulfate. The working solution was then prepared by mixing the two stock solutions in equal quantities and allowing them to react for 12–14 h at room temperature in the dark. The solution was then diluted by mixing 1 mL of the ABTS solution with 30 mL of ethanol. A fresh ABTS solution was prepared for each assay. Furthermore, 300 µL of each compound in EtOH (100 µM) was allowed to react with 1 mL of the ABTS solution, and the absorbance was taken at 734 nm after 7 min using a spectrophotometer. The ABTS scavenging capacity of the compound was calculated as: %ABTS radical scavenging activity=Abscontrol−Abssample/Abscontrol×100 where Abscontrol is the absorbance of the ABTS radical in ethanol, and Abssample is the absorbance of an ABTS radical solution mixed with a sample.
Vitamin C (100 µM) and Trolox (100 µM) were used as positive controls.

| Compound | Effect on lipase activity (in words) [1] | IC50 (α-glucosidase) | Fold increase of lipase activity compared to the control [1] | α-Glucosidase Inhibitory Activity (IC50 ± SD) (α-glucosidase) | DPPH % (radical-scavenging activity) [2] | ABTS % (radical-scavenging activity) [3] | ABTS % (radical-scavenging activity) ([3]; listed as Vitamin C) |
| --- | --- | --- | --- | --- | --- | --- | --- |
| Cc1c(C)c2c(c(C)c1O)CCC(C)(C(=O)O)O2 (centres unmarked) [Trolox, reference compound] |  |  |  |  | 88.33 ± 0.33% | 94.16% and 94.16 ± 0.32% |  |
| O=c1c(OC2OC(CO)C(O)C(O)C2O)c(-c2cc(O)c(O)c(O)c2)oc2cc(O)cc(O)c12 (centres unmarked) [HC2, myricetin-3-O-glucoside] | do not inhibit lipase activity |  | fivefold | did not exhibit measurable inhibitory activity | 84.32% and 84.32 ± 0.23% | 97.23% and 97.23 ± 0.45% |  |
| O=C1O[C@H]([C@@H](O)CO)C(O)=C1O [Vit C, reference compound] |  |  |  |  | 59.44 ± 0.42% | 66.21 ± 0.45% | 66.21% |
| COC(=O)CC(CC(O)C(C)C)O[C@@H]1O[C@H](COC(=O)/C=C/c2ccc(O)cc2)[C@@H](O)[C@H](O)[C@H]1O (stereo partly drawn) [HC7, Methyl 3-O-{6-[(2E)-p-hydroxycinnamoyl]-β-glucopyranosyl}-6-methyl-5-hydroxyheptanoate] | did not show any significant effect on lipase activity |  |  | did not exhibit measurable inhibitory activity | 11.48% and 11.48 ± 0.21% | 26.88% and 26.88 ± 0.33% |  |
| CC(=O)OC1C(Oc2cc(O)cc(O)c2C(=O)c2ccccc2)OC(CO)C(O)C1O [HC4, 4,6-Dihydroxy Benzophenone-2-O-β-D-2″-Acetylglucopyranoside] | did not show any significant effect on lipase activity |  |  | did not exhibit measurable inhibitory activity | 14.63% and 14.63 ± 0.50% | 70.20% and 70.20 ± 0.23% |  |

Second part, led by results:

| Effect on lipase activity (in words) [1] | IC50 (α-glucosidase) | Fold increase of lipase activity compared to the control [1] | Compound | α-Glucosidase Inhibitory Activity (IC50 ± SD) (α-glucosidase) | DPPH % (radical-scavenging activity) [2] | ABTS % (radical-scavenging activity) [3] | ABTS % (radical-scavenging activity) ([3]; listed as Vitamin C) |
| --- | --- | --- | --- | --- | --- | --- | --- |
| do not inhibit lipase activity |  |  | COC(=O)C1(O)CC(O)C(O)C(OC(=O)C=Cc2ccc(O)c(O)c2)C1 (centres unmarked) [HC5, methyl ester of chlorogenic acid] | did not exhibit measurable inhibitory activity | 84.57% and 84.57 ± 0.27% | 71.27% and 71.27 ± 0.08% |  |
| do not inhibit lipase activity | 44 ± 5 µM |  | O=C(C=Cc1ccc(O)cc1)OC1CC(O)(C(=O)O)CC(O)C1O (centres unmarked) [HC1, coumaroylquinic acid] |  | 18.95% and 18.95 ± 0.36% | 22.12% and 22.12 ± 0.63% |  |
| do not inhibit lipase activity | 371 ± 9 µM |  | CC(C)C1CC(OC2OC(COC(=O)C=Cc3ccc(O)cc3)C(O)C(O)C2O)CC(=O)O1 [HC6, 4-O-{6-[(2E)-p-Hydroxycinnamoyl]-β-D-Glucopyranosyl}-6-isopropyl-tetrahydro-2H-pyran-2-one] |  | 15.93% and 15.93 ± 0.33% | 25.50% and 25.50 ± 0.12% |  |
| do not inhibit lipase activity | 206 ± 13 µM | fivefold | O=c1c(OC2OC(CO)C(O)C(O)C2O)c(-c2cc(O)c(O)c(O)c2)oc2cc(O)cc(O)c12 (centres unmarked) [HC3, myricetin-3-O-galactoside] |  | 82.70% and 82.70 ± 0.34% | 96.04% and 96.04 ± 0.37% |  |
